Test results: US20060292112A1, “Dendrimer-photosensitizer complexes for medical applications” (priority 1999, published 2006)

Columns and labels:
Assay type in all cases: physicochemical
[1] = Singlet oxygen quantum yield (photoinduced singlet oxygen) in ethanol; details: for singlet oxygen quantum yield (ΦA): in ethanol, before light exposure
From the text: The quantum yield of the photoinduced singlet oxygen of Pheo (0.52) decreases to 0.05 for Pheo 16 (see Table 1).
(§1) They equal to the parameters of the free Pheo.

[2] = Fluorescence life time in ethanol; details: for Fluorescence life time (τFl): for Pheo 16 the longer component of a double exponential decay; for Fluorescence life time (τFl), second decay component: double exponential decay
[3] = Release of Pheo from dendrimer complex by light exposure (MALDI); details: after 30 min light exposure with UV lamp (~1 kJ)
From the text: as §1
However, this process occurs only in the presence of oxygen. Presumably, the primary generated singlet oxygen caused the separation of the bonds between the dye molecules and the dendrimer.

[4] = Fluorescence intensity in ethanol; details: versus fluorescence intensity of Pheo in ethanol
From the text: The fluorescence spectra of al samples show nearly the same shape. However, the fluorescence intensity of Pheo 16 in ethanol is 50 times smaller than the fluorescence intensity of Pheo in ethanol (see FIG. 2).

Row | Fluorescence life time (τFl) [2] [ns] | Fluorescence life time (τFl) ([2]; listed as Pheo) [ns] | Compound | singlet oxygen quantum yield (ΦA) [1] | release of Pheo on light exposure [3] | fluorescence intensity relative to Pheo [4] [times smaller] | singlet oxygen quantum yield after light exposure ([1]; after light exposure of a 3 ml sample with 40 J and 514 nm) | Fluorescence life time (τFl), second decay component ([2]; relation of amplitudes 2 to 1) [ns] | Fluorescence life time (τFl), second decay component ([2]; relation of amplitudes 2 to 1, listed as Pheo-16-dendrimer complex) [ns] | fluorescence lifetime, first component of double exponential decay ([2]; relation of amplitudes 2 to 1) [ns]
1 | 6.1 ± 0.3 | – | C=Cc1c(C)c2cc3nc(c4c5[nH]c(cc6nc(cc1[nH]2)C(C)=C6CC)c(C)c5C(=O)[C@@H]4C(=O)OC)[C@@H](CCC(=O)ON1C(=O)CCC1=O)[C@@H]3C [Pheo-succinimide ester, pheophorbide a-succinimide ester] | 0.55 | – | – | – | – | – | –
2 | 5.7 ± 0.2 | 5.7 | Pheophorbide a [reference compound] | 0.52 | – | – | – | – | – | –

Row | Compound | Fluorescence life time (τFl) [2] [ns] | Fluorescence life time (τFl) ([2]; listed as Pheo) [ns] | singlet oxygen quantum yield (ΦA) [1] | release of Pheo on light exposure [3] | fluorescence intensity relative to Pheo [4] [times smaller] | singlet oxygen quantum yield after light exposure ([1]; after light exposure of a 3 ml sample with 40 J and 514 nm) | Fluorescence life time (τFl), second decay component ([2]; relation of amplitudes 2 to 1) [ns] | Fluorescence life time (τFl), second decay component ([2]; relation of amplitudes 2 to 1, listed as Pheo-16-dendrimer complex) [ns] | fluorescence lifetime, first component of double exponential decay ([2]; relation of amplitudes 2 to 1) [ns]
3 | Pheophorbide a-diaminobutane-polypropylene-imine Dendrimer 3.0 Complex [Pheo 16] | 4.9 ± 0.3 | – | 0.05 | release of Pheo | 50 | 0.47 | 0.5 | 0.5 ± 0.3 | 4.5
